Marks after values point to notes of the source that are not given here.
Key:
[1] = Solubility of the peptide; type: physicochemical
Description: The resulting peptide has the following physical and chemical properties and characteristics: […]

[2] = system: Intact bone marrow cells (hemopoietic stem cells); test: Spleen colony formation after in vitro treatment of intact bone marrow cells; type: cell-based, mice; details: for Colony count: Table 4, control 9,0 ± 0,6
Protocol: The effect of peptides of the present invention on a population of hemopoietic progenitors was studied by testing for colony formation by hemopoietic stem cells in spleens of irradiated mice.
Intact bone marrow cells were incubated at 37° C. for 1 hour with different concentrations of the peptide ranging from […]/ml. The suspension was injected to lethally irradiated recipient mice. After 8 days the animals were killed and spleen colonies were counted.
The treatment was carried out as described above in Example 4(a).

[3] = system: lethally irradiated recipient mice; test: State of hemopoiesis after transplantation of allogenic bone marrow; type: in vivo; details: for Caryocytes in blood: control 1,7 + 0,3; for Lymphocytes, %: control 3
Protocol: In a series of experiments, bone marrow cells (6 million) of one of the parents were transplanted to lethally irradiated recipient mice which were hybrids of the first generation. […] Generally, weight loss is observed and there is a small percent of deaths during the 42-day study.
A day after the bone marrow transplantation, test recipients began to receive therapy. Three schemes of therapy were used: (1) iDD, 10 μg/kg, ip, for 5 days running, with 2-day intervals, for 6 weeks (K+iDD); (2) before transplantation, bone marrow transplants were treated with iDD in vitro for 1 hour at 37° C., 0.2 jig per 2 x 10^6 cells, without […] treatment with the preparation (iDD); and (3) bone marrow was pretreated in vitro as described in scheme 2, followed by iDD therapy as in scheme 1 (iDD+iDD). Control subjects were mice that were transplanted with the bone marrow without any further therapy. These animals received ip injections of the solvent according to the same schedule.

[4] = system: hyperthermic bone marrow cells (CFU-S); test: Survival of CFU-S of bone marrow after heating at 42° C.; type: cell-based
Protocol: Hyperthermia is used in the treatment of various cancer types. When treating leukosis, the damaged bone marrow cells are heated at approximately 41-42° C. in order to kill malignant cells as they are more sensitive to heat. However, some non-malignant stem cells may also be affected. Consequently, the ability of the iDD peptide to protect cells during hyperthermia was tested. A suspension of the bone marrow, previously incubated for 1 hour at 37° C. in the presence of iDD (0.2 μg/4×10^6 cells), was heated for 30 minutes at 42° C. It was then diluted until the necessary concentration was reached and transplanted to the lethally radiated recipients The quantity of the exogenous colonies in the spleen was determined on the ninth day. […] The decrease of the colony formation under the action of iDD is not critical, because its colony-inhibiting action is reversible.

[5] = system: mixed lymphocyte culture (MLC); test: Mixed lymphocyte culture (MLC) proliferation; type: cell-based, mice
Protocol: The influence of the peptides of the invention on the proliferation of a mixed lymphocyte culture (MLC) was studied. The MLC experimental system is an in vitro analogue of the GVHD reaction.
Donor spleen cells from C57B1 mice ([…]) were injected into recipient (CBA×C57B1) F1 mice. Bone marrow was removed from the recipient and cultured for 4 days. The cultured cells were separated into 3 test groups, one group was treated with iDD, one with the L-peptide H-Ile-Glu-Trp-OH and one was a control. Each test peptide was added in various concentrations. Each determination was done in triplicate. ^3H-thymidine was added to each culture for 16 hours and the index of the proliferation of the cells was calculated.

[6] = system: (CBA×C57 B1) F1 mice; test: Chronic lymphocyte-induced GVHR in irradiated (6 Gy) mice; type: in vivo; details: for Survival (%) / Survival (mice): after 60 days; for Survival (%): control 60; for Survival (mice): of 10 mice, control 6
Protocol: Recipient (CBA×C57 B1) F1 mice were irradiated with the dose of 6 Gy. Two hours after irradiation they were intravenously injected with 6 mln lymphocytes from mesenteric lymph nodes of C57B1 donor mice. […] The peptide was injected intraperitoneally once daily, 5 days a week, until day 21, for a total of 14 injections.
Indicators of the degree of GVHR development were animal weight and lymphocyte and leukocyte count. The animals were weighed every 3 days. On day 14 and day 28 lymphocyte and leukocyte count were determined using peripheral blood.

[7] = iDD + iDD: in vitro pretreatment and iDD therapy
[8] = iDD: transplant treated in vitro only

For H-D-iGlu-D-Trp-OH [iDD], the Solubility in alcohol ([1]; alcohol) was “moderately soluble”, the Solubility in chloroform ([1]; chloroform) was “insoluble” and the Solubility in water ([1]; water) was “readily soluble”. For the same substance, the “Decrease of number of spleen colonies” value ([2]; Table 4, in the presence of the peptide) was “more than 50%”, the Colony count ([2]; peptide dose 0,1 μg/ml, no thymocytes) was 4,4 ± 0,5 and the Colony count ([2]; peptide dose 0,02 μg/ml, no thymocytes) was 3,6 ± 0,5. For the same substance, the Colony count ([2]; peptide dose 1,0 μg/ml, no thymocytes) was 4,3 ± 0,3, the Colony count ([2]; peptide dose 10,0 μg/ml, no thymocytes) was 4,3 ± 0,1 and the Colony count ([2]; peptide dose 10,0 μg/ml, with thymocytes 2 × 10^7 cells) was 8,7 ± 0,4. For the same substance, the Colony count ([2]; peptide dose 20,0 μg/ml, no thymocytes) was 3,9 ± 0,4, the Caryocytes in blood ([3]; K+ iDD: iDD 10 μg/kg ip, 6 weeks, intact 5,4 + 1,0) was 3,8 + 0,3 thousand/μl and the “Lymphocytes, %” value ([3]; K+ iDD: iDD 10 μg/kg ip, 6 weeks, intact 43) was 19%. The Caryocytes in blood [3, 7] was 5,2 + 0,6* thousand/μl, the “Lymphocytes, %” value [3, 7] was 40* % and the Caryocytes in blood [3, 8] was 4,2 + 0,3 thousand/μl. The “Lymphocytes, %” value [3, 8] was 21,5%, the “Increase of lymphocyte count versus control” value ([3]; schemes K+iDD and iDD) was 6-7 times and the “Medium quantity of colonies” value ([4]; iDD 0.2 μg/4×10^6 cells + heating 30 minutes at 42° C., control + heating 5.9 ± 0.6) was 6.9 ± 0.6. The “Medium quantity of colonies” value ([4]; iDD 0.2 μg/4×10^6 cells, no heating, control 11.4 ± 0.4) was 6.0 ± 0.6, the “Survival of CFU-S, %” value ([4]; iDD + heating, control + heating 51.7) was 115% and the “Survival of CFU-S, %” value ([4]; iDD, no heating (reference)) was 100%. The “Effect on MLC when H-Ile-Glu-Trp-OH and iDD added in equal concentrations” value ([5]; both peptides in equal concentrations) was “the effect of iDD was predominant”, the “Depression of the proliferation MLC” value ([5]; concentrations of 10 and 20 μg/ml, FIG. 1) was ~50% and the “Animal Weight” value ([6]; Dose 10 μ/kg, Day 5, initial average 18.3 g) was 18.0 grams. For the same substance, the “Animal Weight” value ([6]; Dose 10 μ/kg, Day 8) was 18.3 grams, the “Animal Weight” value ([6]; Dose 10 μ/kg, Day 12) was 18.3 grams and the “Animal Weight” value ([6]; Dose 10 μ/kg, Day 14) was 17.8 grams. For the same substance, the “Animal Weight” value ([6]; Dose 10 μ/kg, Day 19) was 17.6 grams, the “Animal Weight” value ([6]; Dose 10 μ/kg, Day 21) was 17.8 grams and the “Animal Weight” value ([6]; Dose 10 μ/kg, Day 23) was 18.6 grams. For the same substance, the “Animal Weight” value ([6]; Dose 10 μ/kg, Day 26) was 18.9 grams, the “Animal Weight” value ([6]; Dose 10 μ/kg, Day 30) was 18.9 grams and the “Animal Weight” value ([6]; Dose 10 μ/kg, Day 33) was 18.9 grams. For the same substance, the “Animal Weight” value ([6]; Dose 10 μ/kg, Day 40) was 19.2 grams, the “Animal Weight” value ([6]; Dose 10 μ/kg, Day 47) was 19.9 grams and the “Animal Weight” value ([6]; Dose 10 μ/kg, Day 54) was 20.0 grams. The “Animal Weight” value ([6]; Dose 10 μ/kg, Day 60) was 20.0 grams, the “Animal Weight” value ([6]; Dose 100 μ/kg, Day 5, initial average 18.3 g) was 18.6 grams and the “Animal Weight” value ([6]; Dose 100 μ/kg, Day 8) was 18.5 grams. The “Animal Weight” value ([6]; Dose 100 μ/kg, Day 12) was 18.6 grams, the “Animal Weight” value ([6]; Dose 100 μ/kg, Day 14) was 19.0 grams and the “Animal Weight” value ([6]; Dose 100 μ/kg, Day 19) was 19.0 grams. For the same substance, the “Animal Weight” value ([6]; Dose 100 μ/kg, Day 21) was 19.3 grams, the “Animal Weight” value ([6]; Dose 100 μ/kg, Day 23) was 19.6 grams and the “Animal Weight” value ([6]; Dose 100 μ/kg, Day 26) was 19.6 grams. For the same substance, the “Animal Weight” value ([6]; Dose 100 μ/kg, Day 30) was 19.7 grams, the “Animal Weight” value ([6]; Dose 100 μ/kg, Day 33) was 19.7 grams and the “Animal Weight” value ([6]; Dose 100 μ/kg, Day 40) was 20.0 grams. For the same substance, the “Animal Weight” value ([6]; Dose 100 μ/kg, Day 47) was 20.3 grams, the “Animal Weight” value ([6]; Dose 100 μ/kg, Day 54) was 20.4 grams and the “Animal Weight” value ([6]; Dose 100 μ/kg, Day 60) was 20.4 grams. For the same substance, the “Animal Weight” value ([6]; Dose 1000 μ/kg, Day 5, initial average 18.3 g) was 19.1 grams, the “Animal Weight” value ([6]; Dose 1000 μ/kg, Day 8) was 19.1 grams and the “Animal Weight” value ([6]; Dose 1000 μ/kg, Day 12) was 18.9 grams. The “Animal Weight” value ([6]; Dose 1000 μ/kg, Day 14) was 18.9 grams, the “Animal Weight” value ([6]; Dose 1000 μ/kg, Day 19) was 19.4 grams and the “Animal Weight” value ([6]; Dose 1000 μ/kg, Day 21) was 19.6 grams. For the same substance, the “Animal Weight” value ([6]; Dose 1000 μ/kg, Day 23) was 19.8 grams, the “Animal Weight” value ([6]; Dose 1000 μ/kg, Day 26) was 19.8 grams and the “Animal Weight” value ([6]; Dose 1000 μ/kg, Day 30) was 20.0 grams. For the same substance, the “Animal Weight” value ([6]; Dose 1000 μ/kg, Day 33) was 20.0 grams, the “Animal Weight” value ([6]; Dose 1000 μ/kg, Day 40) was 20.2 grams and the “Animal Weight” value ([6]; Dose 1000 μ/kg, Day 47) was 20.5 grams. For the same substance, the “Animal Weight” value ([6]; Dose 1000 μ/kg, Day 54) was 20.1 grams, the “Animal Weight” value ([6]; Dose 1000 μ/kg, Day 60) was 20.4 grams and the “Survival (%)” value ([6]; Dose 10 μ/kg) was 90%. The “Survival (mice)” value ([6]; Dose 10 μ/kg) was 9, the “Survival (%)” value ([6]; Dose 100 μ/kg) was 90% and the “Survival (mice)” value ([6]; Dose 100 μ/kg) was 9. The “Survival (%)” value ([6]; Dose 1000 μ/kg) was 80%, the “Survival (mice)” value ([6]; Dose 1000 μ/kg) was 8 and the “Lymphocyte and leukocyte counts versus control mice” value ([6]; peripheral blood, day 14 and day 28, Table 20 not given) was “significantly higher”.

From patent US6410515B1, “Peptide, a method for its preparation and a pharmaceutical composition containing the peptide” (Immunotech Developments Inc., priority 1995, dated 2002)
